Experimental data from patent publication US20080119451A1, “Novel Benzamide Derivatives” (ASTRAZENECA AB, priority 2005, published 2008).

Assays:
recombinant human HDAC1 = biological target: T1, recombinant human HDAC1 (Homo sapiens, UniProt Q13547); experiment: In vitro enzyme assay of recombinant HDAC1 (Fluor de Lys deacetylase assay); format: biochemical; settings: recombinant human HDAC1 produced in Hi5 insect cells; acetylated histone H4 peptide substrate; read-out: Test (a) IC50
T1 construct: FLAG (C); made in house; host or cells: Hi5 insect cells
T1 sequence (Q13547 whole entry): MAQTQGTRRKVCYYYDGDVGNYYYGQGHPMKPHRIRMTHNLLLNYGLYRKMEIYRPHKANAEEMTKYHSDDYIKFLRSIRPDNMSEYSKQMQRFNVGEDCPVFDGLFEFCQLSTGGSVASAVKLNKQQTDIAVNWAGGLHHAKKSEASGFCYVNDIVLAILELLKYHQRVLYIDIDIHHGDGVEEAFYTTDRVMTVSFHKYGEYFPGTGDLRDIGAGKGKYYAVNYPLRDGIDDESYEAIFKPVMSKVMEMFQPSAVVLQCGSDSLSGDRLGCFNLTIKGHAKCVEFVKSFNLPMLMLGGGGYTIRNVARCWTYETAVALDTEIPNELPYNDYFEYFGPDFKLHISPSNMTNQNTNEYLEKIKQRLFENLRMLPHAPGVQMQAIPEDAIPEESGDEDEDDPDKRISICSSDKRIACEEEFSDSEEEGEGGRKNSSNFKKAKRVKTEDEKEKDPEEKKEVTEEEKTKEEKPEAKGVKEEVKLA
Description: (a) In Vitro Enzyme Assay of Recombinant HDAC1
HDAC inhibitors were screened against recombinant human HDAC1 produced in Hi5 insect cells. The enzyme was cloned with a FLAG tag at the C-terminal of the gene and affinity purified using Anti-FLAG M2 agarose from SIGMA (A2220).
The deacetylase assays were carried out in a 50 μl reaction. […] The reaction was stopped by addition of an equal volume (50 μl) Fluor de Lys developer (Biomol) containing Trichostatin A at 2 μM. […] IC50 values for HDAC enzyme inhibitors were determined by performing dose response curves with individual compounds and determining the concentration of inhibitor producing fifty percent decrease in the maximal signal (diluent control).

HCT116 cells = experiment: In vitro assay of inhibition of proliferation in whole cells (Promega MTS assay); format: cell-based; settings: Homo sapiens, HCT-116, 72 hours treatment, read-out: Test (b) IC50
Description: (b) In Vitro Assay of Inhibition of Proliferation in Whole Cells
Inhibition of proliferation in whole cells was assayed using the Promega cell titer 96 aqueous proliferation assay (Promega #G5421). HCT116 cells were seeded in 96 well plates at 1×10^3 cells/well, and allowed to adhere overnight. They were treated with inhibitors for 72 hours. 20 μl of the tetrazolium dye MTS was added to each well and the plates were reincubated for 3 hours. Absorbance was then measured on a 96 well plate reader at […]. The IC50 values for HDAC inhibitors were determined by performing dose response curves with individual compounds and determining the concentration of inhibitor producing fifty percent decrease in maximal signal (diluent control).

IC50 (recombinant human HDAC1) | IC50 (HCT116 cells) | Compound
89 nM | 2330 nM | Nc1ccccc1NC(=O)c1ccc(-c2ccccn2)cc1 [Comparator, N-(2-aminophenyl)-4-pyridin-2-ylbenzamide, reference compound]
19 nM | 238 nM | Cc1cc(CN2CCN(C(C)C)CC2)cnc1-c1ccc(C(=O)Nc2ccccc2N)cc1 [Example 2, N-(2-aminophenyl)-4-{5-[(4-isopropylpiperazin-1-yl)methyl]-3-methylpyridin-2-yl}benzamide]

Compound | IC50 (recombinant human HDAC1) | IC50 (HCT116 cells)
Cc1cc(CN2CCC2)cnc1-c1ccc(C(=O)Nc2ccccc2N)cc1 [Example 4, N-(2-aminophenyl)-4-[5-(azetidin-1-ylmethyl)-3-methylpyridin-2-yl]benzamide] | 21 nM | 310 nM
